Legend:
Assay type in all cases: cell-based
[1] = biological target: T1, calcium-sensing receptor CaSR (Homo sapiens, UniProt P41180); test: calcium mobilization assay in PEAKrapid cells transiently expressing human CaSR, with mock control
T1 sequence (P41180 20-1078): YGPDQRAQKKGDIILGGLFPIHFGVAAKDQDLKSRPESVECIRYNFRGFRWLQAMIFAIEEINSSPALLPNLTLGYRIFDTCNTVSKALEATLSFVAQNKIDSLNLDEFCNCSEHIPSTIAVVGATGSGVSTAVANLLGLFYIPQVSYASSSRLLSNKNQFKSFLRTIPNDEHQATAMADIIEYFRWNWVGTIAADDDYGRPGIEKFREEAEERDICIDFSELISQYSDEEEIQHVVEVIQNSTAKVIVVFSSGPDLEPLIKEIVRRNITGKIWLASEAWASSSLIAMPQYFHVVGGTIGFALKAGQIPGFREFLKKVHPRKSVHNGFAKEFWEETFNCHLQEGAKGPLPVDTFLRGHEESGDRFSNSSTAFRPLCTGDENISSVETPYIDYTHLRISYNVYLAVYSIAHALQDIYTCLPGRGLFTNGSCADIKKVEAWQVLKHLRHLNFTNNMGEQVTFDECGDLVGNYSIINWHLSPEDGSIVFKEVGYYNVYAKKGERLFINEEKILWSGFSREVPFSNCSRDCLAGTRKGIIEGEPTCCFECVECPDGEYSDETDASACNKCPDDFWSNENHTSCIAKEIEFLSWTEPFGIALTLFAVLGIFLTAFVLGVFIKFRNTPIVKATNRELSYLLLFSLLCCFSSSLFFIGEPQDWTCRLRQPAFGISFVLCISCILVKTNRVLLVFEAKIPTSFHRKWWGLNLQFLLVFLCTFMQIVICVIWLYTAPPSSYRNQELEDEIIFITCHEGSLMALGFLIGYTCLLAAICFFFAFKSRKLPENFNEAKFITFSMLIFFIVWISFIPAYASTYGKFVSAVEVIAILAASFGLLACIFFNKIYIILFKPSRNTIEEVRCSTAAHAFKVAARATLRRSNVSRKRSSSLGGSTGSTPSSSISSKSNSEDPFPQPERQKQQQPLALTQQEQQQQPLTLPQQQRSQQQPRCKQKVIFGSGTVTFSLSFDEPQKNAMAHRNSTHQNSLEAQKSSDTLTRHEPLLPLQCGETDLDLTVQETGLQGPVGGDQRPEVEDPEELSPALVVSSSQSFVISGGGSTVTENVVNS

[2] = biological target: T1, calcium-sensing receptor CaSR; test: as above; remark: listed apart in the source
[3] = biological target: T1, calcium-sensing receptor CaSR; test: calcium mobilization assay in PEAKrapid cells transiently expressing human CaSR; potentiation of CaCl2 response at […]

Row | SMILES | calcium mobilization assay in PEAKrapid cells transiently expressing human CaSR, [1] | further results
1 | CCC(C)C=O (centres unmarked) [2-methylbutylaldehyde] | CaSR was activated by propionaldehyde (A,I), butanal (B,I), isobutylaldehyde (C,I), 2-methylbutylaldehyde (D,I) | –
2 | CC(C)CC=O [IVAH, isovaleraldehyde] | – | EC50 [2]: 681 µM
3 | CSCCC=O [MTN, methional] | – | calcium mobilization assay in PEAKrapid cells transiently expressing human CaSR, [3]: only methional activated CaSR, while neither of the methional analogues tested activated CaSR
4 | CCCC=O [butanal] | CaSR was activated by propionaldehyde (A,I), butanal (B,I) | –
5 | CCCCCC=O [hexanal] | 2-methylbutylaldehyde (D,I), pentanal (E,I), hexanal (F,I) | –
6 | CC(C)C=O [isobutylaldehyde] | CaSR was activated by propionaldehyde (A,I), butanal (B,I), isobutylaldehyde (C,I) | –
7 | CCCCC=O [pentanal] | 2-methylbutylaldehyde (D,I), pentanal (E,I), hexanal (F,I) | –
8 | CCC=O [propionaldehyde] | CaSR was activated by propionaldehyde (A,I) | –
